The text below walks through data of patent EP4389132A1 (priority 2021, dated 2023).

Experiment [1] addresses T1, binding of SARS-CoV-2 to ACE2 (UniProt P0DTC2+Q9BYF1).
T1 construct: purchased RayBiotech Life, Inc
The experiment can be described thus: COVID-19 Spike-ACE2 Binding Assay Kit (RayBiotech): ACE2 protein binding to S-protein adsorption plate, absorbance at 450 nm. Details: species or system human.

The subject of experiment [2] is influenza A/Kitakyushu/159/93 (H3N2). The experiment can be described thus: Antiviral properties of treated natural rubber glove film, plaque method on MDCK cells. Format: cell-based, influenza virus. The settings on record: glove immersed in 1% (V/V) aqueous solution for 10 minutes, dried; virus contact 1 hour at room temperature; control 6.78.
A further experiment has as its system coronavirus (SARS-CoV-2). Put plainly: Antiviral test of processed non-woven fabric according to ISO 18184, plaque method. Format: cell-based. As to conditions: polyethylene terephthalate non-woven fabric immersed in 2% (V/V) aqueous solution, pickup rate 200%, dried at 110°C; control 6.63.

In the case of `O[C@H]1[C@H](O)[C@@H](O)[C@H](O)[C@@H](O)[C@H]1O` [Myo-inositol, myo-inositol], in experiment [1] (Concentration 2 % (V/V), relative binding rate, control = 1.00), the Virus binding rate stood at 1.00. In experiment [1] (summary of Table 1), the “binding inhibitory effect on the binding of SARS-CoV-2 to ACE2 (in words)” value is recorded as “no binding inhibitory effect was observed”. Moreover, the Viral infectivity titer in experiment [2] is 4.1 PFU/0.1 mL, Log10; in the experiment with coronavirus (SARS-CoV-2), 2.7 PFU/0.1 mL, Log10.
